Results published in patent US20240166609A1, “ANTIBACTERIAL COMPOUNDS” (BLACKSMITH MEDICINES, INC., priority 2021, published 2024).
≈ marks a conversion by molar mass, not a printed value.

Tests used:
E. coli LpxC = biological target: T1, E. coli LpxC (Escherichia coli, UniProt P0A725); test: LpxC Binding Assay (Rapid Fire MS assay); format: biochemical
T1 sequence (P0A725 1-305): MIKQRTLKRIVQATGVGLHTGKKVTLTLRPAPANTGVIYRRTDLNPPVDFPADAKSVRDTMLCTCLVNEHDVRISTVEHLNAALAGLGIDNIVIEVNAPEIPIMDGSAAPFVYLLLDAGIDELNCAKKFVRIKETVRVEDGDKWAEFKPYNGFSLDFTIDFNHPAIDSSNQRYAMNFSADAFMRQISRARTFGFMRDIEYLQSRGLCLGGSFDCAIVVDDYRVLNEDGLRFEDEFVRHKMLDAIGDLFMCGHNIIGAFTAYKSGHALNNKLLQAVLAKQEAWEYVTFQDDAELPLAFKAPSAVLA
Procedure: (§1) IC50 values against E. coli and P. aeruginosa LpxC are determined using a Rapid Fire MS assay as previously described J. Med. Chem. 2012, 55, 1662-1670.

P. aeruginosa LpxC = biological target: T2, P. aeruginosa LpxC (Pseudomonas aeruginosa, UniProt P47205); test: LpxC Binding Assay (Rapid Fire MS assay); format: biochemical
T2 sequence (P47205 1-303): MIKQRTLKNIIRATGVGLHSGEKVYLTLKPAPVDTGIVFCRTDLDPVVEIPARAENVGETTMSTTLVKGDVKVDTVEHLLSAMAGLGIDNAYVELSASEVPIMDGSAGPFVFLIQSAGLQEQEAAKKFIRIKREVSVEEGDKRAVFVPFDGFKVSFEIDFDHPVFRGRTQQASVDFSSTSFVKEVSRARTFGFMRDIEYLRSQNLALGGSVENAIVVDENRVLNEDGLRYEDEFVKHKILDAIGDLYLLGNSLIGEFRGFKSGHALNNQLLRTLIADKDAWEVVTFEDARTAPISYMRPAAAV
Procedure: as §1

E. coli ATCC25922 = test: Bacterial susceptibility testing, MIC by broth microdilution (CLSI); format: cell-based; conditions: Escherichia coli, 35° C., 18-24 h, read-out: MIC (μg/mL) E. coli ATCC25922
Procedure: (§2) Minimal inhibitory concentrations (MIC) were determined by the broth microdilution method in accordance with the Clinical and Laboratory Standards Institute (CLSI) guidelines. In brief, organism suspensions were adjusted to a final inoculum between 3×10^5 and 7×10^5 colony-forming units (CFU)/mL. Drug dilutions and inocula were made in sterile, cation adjusted Mueller-Hinton Broth (Beckton Dickinson). In wells, an inoculum volume of 100 μL was mixed to 2 μL of DMSO with 2-fold serial dilutions of drug. All inoculated microdilution trays were incubated in ambient air at 35° C. for 18-24 h. Following incubation, the lowest concentration of the drug that prevented visible growth (OD600 nm<0.05) was recorded as the MIC. Performance of the assay was monitored by the use of laboratory quality-control strains and compounds with defined MIC spectrum, in accordance with CLSI guidelines

P. aeruginosa 209 PAO1 = test: as above; format: cell-based; conditions: Pseudomonas aeruginosa, 35° C., 18-24 h, read-out: MIC (μg/mL) P. aeruginosa 209 PAO1
Procedure: as §2

P. aeruginosa ATCC27835 = test: as above; format: cell-based; conditions: Pseudomonas aeruginosa, 35° C., 18-24 h, read-out: MIC (μg/mL) P. aeruginosa ATCC27835
Procedure: as §2

K. pneumoniae ATCC13883 = test: as above; format: cell-based; conditions: Klebsiella pneumoniae, 35° C., 18-24 h, read-out: MIC (μg/mL) K. pneumoniae ATCC13883
Procedure: as §2

K. pneumoniae LpxC = K. pneumoniae LpxC (Klebsiella pneumoniae subsp. pneumoniae, UniProt A6T4N9); test: LpxC Binding Assay (Rapid Fire MS assay); format: biochemical
Chain of K. pneumoniae LpxC (A6T4N9 whole entry): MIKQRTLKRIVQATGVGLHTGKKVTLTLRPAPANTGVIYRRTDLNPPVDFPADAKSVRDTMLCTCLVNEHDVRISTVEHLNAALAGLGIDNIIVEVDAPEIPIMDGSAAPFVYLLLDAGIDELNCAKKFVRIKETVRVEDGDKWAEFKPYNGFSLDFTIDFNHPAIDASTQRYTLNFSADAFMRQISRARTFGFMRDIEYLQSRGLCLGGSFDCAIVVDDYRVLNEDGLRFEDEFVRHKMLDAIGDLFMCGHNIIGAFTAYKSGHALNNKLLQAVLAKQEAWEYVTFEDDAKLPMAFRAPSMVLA

| MIC (E. coli ATCC25922) [µg/mL] | Structure (SMILES) | IC50 (E. coli LpxC) [nM] | IC50 (P. aeruginosa LpxC) [nM] | MIC (P. aeruginosa 209 PAO1) [µg/mL] | MIC (P. aeruginosa ATCC27835) [µg/mL] | MIC (K. pneumoniae ATCC13883) [µg/mL] | IC50 (K. pneumoniae LpxC) [nM] |
| --- | --- | --- | --- | --- | --- | --- | --- |
| – | C[C@H](O)c1nccn1[C@@H](C#Cc1ccc(-c2ccc(CO[C@@H]3C[C@H]3N)cc2)cc1)CO (racemic) [Compound 9, (S)-4-(4′-(((trans)-2-aminocyclopropoxy)methyl)-[1,1′-biphenyl]-4-yl)-2-(2-((S)-1-hydroxyethyl)-1H-imidazol-1-yl)but-3-yn-1-ol] | 1.8 | 47.7 | 2 (≈ 4.79 µM) | 4 (≈ 9.58 µM) | 4 (≈ 9.58 µM) | 3.9 |
| – | C[C@H](O)c1nccn1[C@@H](C#Cc1ccc(-c2ccc(O[C@@H]3C[C@H]3NCCF)cc2)cc1)CO (racemic) [Compound 12, (S)-4-(4′-((trans)-2-((2-fluoroethyl)amino)cyclopropoxy)-[1,1′-biphenyl]-4-yl)-2-(2-((S)-1-hydroxyethyl)-1H-imidazol-1-yl)but-3-yn-1-ol] | < 0.5 | 6 | 2 (≈ 4.45 µM) | 4 (≈ 8.9 µM) | 2 (≈ 4.45 µM) | 1.1 |
| – | C[C@H](O)c1nccn1[C@@H](C#Cc1ccc(-c2ccc(OCC3COCCO3)cc2)cc1)CO (mixture of isomers) [Compound 13, (2S)-4-(4′-((1,4-dioxan-2-yl)methoxy)-[1,1′-biphenyl]-4-yl)-2-(2-((S)-1-hydroxyethyl)-1H-imidazol-1-yl)but-3-yn-1-ol] | < 0.5 | 5.5 | 2 (≈ 4.46 µM) | 4 (≈ 8.92 µM) | 1 (≈ 2.23 µM) | 0.9 |
| – | C[C@H](O)c1nccn1[C@@H](C#Cc1ccc(-c2ccc(OCC(C)(O)CO)cc2)cc1)CO (mixture of isomers) [Compound 16, 3-((4′-((S)-4-hydroxy-3-(2-((S)-1-hydroxyethyl)-1H-imidazol-1-yl)but-1-yn-1-yl)-[1,1′-biphenyl]-4-yl)oxy)-2-methylpropane-1,2-diol] | 1.3 | 8.3 | 2 (≈ 4.58 µM) | 4 (≈ 9.16 µM) | 4 (≈ 9.16 µM) | 2.2 |
| – | C[C@H](O)c1nccn1[C@@H](C#Cc1ccc(-c2ccc(OCCC(O)CO)cc2)cc1)CO (mixture of isomers) [Compound 17, 4-((4′-((S)-4-hydroxy-3-(2-((S)-1-hydroxyethyl)-1H-imidazol-1-yl)but-1-yn-1-yl)-[1,1′-biphenyl]-4-yl)oxy)butane-1,2-diol] | 0.5 | 6.6 | 1 (≈ 2.29 µM) | 2 (≈ 4.58 µM) | 2 (≈ 4.58 µM) | 1 |
| – | C[C@H](O)c1nccn1[C@@H](C#Cc1ccc(-c2ccc(OC(CO)CCO)cc2)cc1)CO (mixture of isomers) [Compound 22, 2-((4′-((S)-4-hydroxy-3-(2-((S)-1-hydroxyethyl)-1H-imidazol-1-yl)but-1-yn-1-yl)-[1,1′-biphenyl]-4-yl)oxy)butane-1,4-diol] | 0.8 | 8 | 1 (≈ 2.29 µM) | 4 (≈ 9.16 µM) | 4 (≈ 9.16 µM) | 1.5 |
| – | C[C@H](O)c1nccn1[C@@H](C#Cc1ccc(-c2ccc(O[C@H]3COC[C@@H]3O)cc2)cc1)CO (relative stereo) [Compound 10, (trans)-4-((4′-((S)-4-hydroxy-3-(2-((S)-1-hydroxyethyl)-1H-imidazol-1-yl)but-1-yn-1-yl)-[1,1′-biphenyl]-4-yl)oxy)tetrahydrofuran-3-ol] | < 0.5 | 5.1 | 1 (≈ 2.3 µM) | 2 (≈ 4.6 µM) | 2 (≈ 4.6 µM) | 0.9 |
| – | C[C@H](O)c1nccn1[C@@H](C#Cc1ccc(-c2ccc(O[C@H]3COC[C@@H]3N)cc2)cc1)CO (relative stereo) [Compound 15, (S)-4-(4′-(((trans)-4-aminotetrahydrofuran-3-yl)oxy)-[1,1′-biphenyl]-4-yl)-2-(2-((S)-1-hydroxyethyl)-1H-imidazol-1-yl)but-3-yn-1-ol] | 1 | 9.8 | 0.5 (≈ 1.15 µM) | 2 (≈ 4.61 µM) | 1 (≈ 2.31 µM) | 1.6 |
| – | C[C@H](O)c1nccn1[C@@H](C#Cc1ccc(-c2ccc(O[C@H]3COC[C@@H]3O)cc2)cc1)CN (relative stereo) [Compound 24, (trans)-4-((4′-((S)-4-amino-3-(2-((S)-1-hydroxyethyl)-1H-imidazol-1-yl)but-1-yn-1-yl)-[1,1′-biphenyl]-4-yl)oxy)tetrahydrofuran-3-ol] | 1.9 | 42.9 | 2 (≈ 4.61 µM) | 4 (≈ 9.23 µM) | 4 (≈ 9.23 µM) | 4.1 |
| – | C[C@H](O)c1nccn1[C@@H](C#Cc1ccc(-c2ccc(OC[C@@H](O)CO)cc2)cc1)CO [Compound 8, (S)-3-((4′-((S)-4-hydroxy-3-(2-((S)-1-hydroxyethyl)-1H-imidazol-1-yl)but-1-yn-1-yl)-[1,1′-biphenyl]-4-yl)oxy)propane-1,2-diol] | 1 | 9.6 | 2 (≈ 4.73 µM) | 2 (≈ 4.73 µM) | 4 (≈ 9.47 µM) | 1.9 |
| – | C[C@H](O)c1nccn1[C@@H](C#Cc1ccc(-c2ccc(OCC(CO)CO)cc2)cc1)CO [Compound 11, 2-(((4′-((S)-4-hydroxy-3-(2-((S)-1-hydroxyethyl)-1H-imidazol-1-yl)but-1-yn-1-yl)-[1,1′-biphenyl]-4-yl)oxy)methyl)propane-1,3-diol] | 1 | 6.6 | 2 (≈ 4.58 µM) | 4 (≈ 9.16 µM) | 8 (≈ 18.3 µM) | 1.8 |
| 0.5 (≈ 1.16 µM) | C[C@H](O)c1nccn1[C@@H](C#Cc1ccc(-c2ccc(C[C@@H]3COC[C@H]3O)cc2)cc1)CO [Compound 41, (3S,4R)-4-((4′-((S)-4-hydroxy-3-(2-((S)-1-hydroxyethyl)-1H-imidazol-1-yl)but-1-yn-1-yl)-[1,1′-biphenyl]-4-yl)methyl)tetrahydrofuran-3-ol] | – | – | 4 (≈ 9.25 µM) | 2 (≈ 4.62 µM) | 2 (≈ 4.62 µM) | – |
| 0.5 (≈ 1.24 µM) | C[C@H](O)c1nccn1CC#Cc1ccc(-c2ccc(O[C@@H]3COC[C@H]3O)cc2)cc1 [Compound 42, (3R,4R)-4-((4′-(3-(2-((S)-1-hydroxyethyl)-1H-imidazol-1-yl)prop-1-yn-1-yl)-[1,1′-biphenyl]-4-yl)oxy)tetrahydrofuran-3-ol] | – | – | 2 (≈ 4.94 µM) | 2 (≈ 4.94 µM) | 0.5 (≈ 1.24 µM) | – |
| 1 (≈ 2.23 µM) | C[C@H](O)c1nccn1[C@@H](C#Cc1ccc(-c2ccc(O[C@@H]3COC[C@H]3O)cc2)cc1)CCO [Compound 43, (3R,4R)-4-((4′-((R)-5-hydroxy-3-(2-((S)-1-hydroxyethyl)-1H-imidazol-1-yl)pent-1-yn-1-yl)-[1,1′-biphenyl]-4-yl)oxy)tetrahydrofuran-3-ol] | – | – | 4 (≈ 8.92 µM) | 2 (≈ 4.46 µM) | 2 (≈ 4.46 µM) | – |
| 2 (≈ 4.07 µM) | COCCN1C[C@@H](O)[C@H](Oc2ccc(-c3ccc(C#C[C@@H](CO)n4ccnc4[C@H](C)O)cc3)cc2)C1 [Compound 44, (3R,4R)-4-((4′-((S)-4-hydroxy-3-(2-((S)-1-hydroxyethyl)-1H-imidazol-1-yl)but-1-yn-1-yl)-[1,1′-biphenyl]-4-yl)oxy)-1-(2-methoxyethyl)pyrrolidin-3-ol] | – | – | 4 (≈ 8.14 µM) | 4 (≈ 8.14 µM) | 4 (≈ 8.14 µM) | – |
| 16 (≈ 33.9 µM) | C[C@H](O)c1nccn1[C@@H](C#Cc1ccc(-c2ccc(O[C@@H]3CN(CC#N)C[C@H]3O)cc2)cc1)CO [Compound 45, 2-((3R,4R)-3-hydroxy-4-((4′-((S)-4-hydroxy-3-(2-((S)-1-hydroxyethyl)-1H-imidazol-1-yl)but-1-yn-1-yl)-[1,1′-biphenyl]-4-yl)oxy)pyrrolidin-1-yl)acetonitrile] | – | – | 2 (≈ 4.23 µM) | 2 (≈ 4.23 µM) | 8 (≈ 16.9 µM) | – |

| Structure (SMILES) | MIC (E. coli ATCC25922) [µg/mL] | IC50 (E. coli LpxC) [nM] | IC50 (P. aeruginosa LpxC) [nM] | MIC (P. aeruginosa 209 PAO1) [µg/mL] | MIC (P. aeruginosa ATCC27835) [µg/mL] | MIC (K. pneumoniae ATCC13883) [µg/mL] | IC50 (K. pneumoniae LpxC) [nM] |
| --- | --- | --- | --- | --- | --- | --- | --- |
| C[C@H](O)c1nccn1CC#Cc1ccc(-c2ccc(OCC(N)CO)cc2)cc1 (mixture of isomers) [Compound 7, 2-amino-3-((4′-(3-(2-((S)-1-hydroxyethyl)-1H-imidazol-1-yl)prop-1-yn-1-yl)-[1,1′-biphenyl]-4-yl)oxy)propan-1-ol] | 2 (≈ 5.11 µM) | 13.6 | 25.5 | 2 (≈ 5.11 µM) | 2 (≈ 5.11 µM) | 4 (≈ 10.2 µM) | – |
